Patent US20180360803A1, “PHARMACEUTICAL COMPOSITION FOR TREATMENT OR PREVENTION OF NASH” (UBE INDUSTRIES, LTD., priority 2015, published 2018)

How the values were obtained:
STAM mice (NASH models) = assay: Non-alcoholic steatohepatitis (NASH) mouse models (STAM mice); type: in vivo; conditions: for NAFLD Activity score, compound administered group: 30 mg/kg twice daily orally for 3 weeks, age of six to nine weeks; for reduction in NAFLD activity score (statistical significance): versus vehicle group
Protocol: STAM (registered trademark) mice (Stelic Institute & Co., Inc.) were used as NASH models. The STAM (registered trademark) mice were prepared by subcutaneously administering 200 μg of streptozotocin (Sigma Aldrich) one time to the back of 2-day old male mice and feeding the mice with a high fat diet (High Fat Diet 32, CLEA Japan, Inc.) from the age of 4 weeks (Medical Molecular Morphology, 46 (2013) pp. 141-152).
The test compound was orally administered every day from the age of 5 or 6 weeks. At the age of 9 or 10 weeks, bloods and livers were collected under anesthesia. The bloods were subjected to biochemical tests. After the wet weights of the livers were measured, RNA was extracted from portions of the livers, and the expression levels of the inflammation and fibrosis marker genes were measured by the quantitative PCR method. Further, the amounts of hydroxyproline or collagen in the livers were measured. Paraffin sections or frozen sections were prepared from portions of the livers and were subjected to histopathological tests to determine the NAFLD activity scores, the fibrosis areas or the inflammation areas. The results were statistically analyzed using EXSUS (CAC EXICARE CORPORATION) or Prism 4 (GraphPad Software, Inc.).

human LPA1 = target: T1, human LPA1 (Homo sapiens, UniProt Q92633); assay: Test of LPA1 antagonism ([35S]GTPγS binding, membrane fraction of RH 7777 cells expressing human LPA1); type: biochemical; conditions: LPA 100 nM, read-out: IC50, concentration required for 50% inhibition of the binding of LPA1 and [35S]GTPγS
T1 construct: purchased ChanTest A324; host or cells: RH 7777 cells (recombinant expression of human LPA1)
T1 sequence (Q92633 whole entry): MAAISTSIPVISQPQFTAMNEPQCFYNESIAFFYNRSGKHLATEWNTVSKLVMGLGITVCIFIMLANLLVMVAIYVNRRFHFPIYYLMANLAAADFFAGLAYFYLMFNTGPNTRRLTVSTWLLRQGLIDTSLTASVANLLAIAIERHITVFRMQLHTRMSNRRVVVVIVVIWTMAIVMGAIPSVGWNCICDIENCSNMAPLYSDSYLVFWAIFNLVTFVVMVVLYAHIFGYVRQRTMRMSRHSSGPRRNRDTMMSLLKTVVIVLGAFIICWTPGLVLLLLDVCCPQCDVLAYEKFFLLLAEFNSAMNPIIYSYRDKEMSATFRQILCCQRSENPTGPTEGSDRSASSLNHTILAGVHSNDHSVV
Protocol: 5 μg of a membrane fraction of RH 7777 cells expressing human LPA1 (A324, ChanTest) was suspended in a reaction buffer (20 mM HEPES, 100 mM NaCl, 10 mM MgCl2, 10 μM GDP, 5 μg saponin, 0.2% BSA, 0.1 nM [^35S]GTPγS (NEG030X, Perkin Elmer), pH 7.4). The test compounds dissolved in DMSO in various concentrations were each added to the suspension. After preincubation at 30° C. for 15 minutes, LPA (L7260, Sigma, final concentration 100 nM) was added, and the suspensions were incubated at 30° C. for 30 minutes. The membrane fractions were collected on a glass fiber filter (GF/B, Whatman) by using a cell harvester (M30, Brandel), and were washed with a 10 mM phosphate buffer (pH 7.4). The radioactivity of the membrane fractions was measured with a liquid scintillation analyzer (2900TR, Packard). The concentration (IC50) of the test compound required for 50% inhibition of the binding of LPA1 and [^35S]GTPγS was determined by non-linear regression analysis using EXSAS (Arm Systex).

| Structure (SMILES) | NAFLD Activity score, compound administered group (STAM mice (NASH models)) | reduction in NAFLD activity score (statistical significance) (STAM mice (NASH models)) | IC50 (human LPA1) [µM] |
| --- | --- | --- | --- |
| COc1cc(-c2sc(Cl)cc2NC(=O)O[C@H](C)c2cc(F)ccc2F)ccc1-c1ccc(C2(C(=O)O)CC2)cc1 [Production Example 9, (R)-1-{4′-[5-chloro-3-({[1-(2,5-difluorophenyl)ethoxy]carbonyl}amino)thiophen-2-yl]-2′-methoxy-[1,1′-biphenyl]-4-yl}cyclopropanecarboxylic acid] | 3.1 ± 1.4 | significant (p<0.05) reduction |  |
| Cc1cscc1[C@@H](C)OC(=O)Nc1cc(F)sc1-c1ccc(-c2ccc(C3(C(=O)O)CC3)cc2)cc1 [Production Example 7, (R)-1-{4′-[5-fluoro-3-({[1-(4-methylthiophen-3-yl)ethoxy]carbonyl}amino)thiophen-2-yl]-[1,1′-biphenyl]-4-yl}cyclopropanecarboxylic acid] |  |  | ≤ 0.1 |
| COc1cc(-c2sc(F)cc2NC(=O)O[C@H](C)c2ccccc2Cl)ccc1-c1ccc(C2(C(=O)O)CC2)cc1 [Production Example 8, (R)-1-{4′-[3-({[1-(2-chloropheny)ethoxy]carbonyl}amino)-5-fluorothiophen-2-yl]-2′-methoxy-[1,1′-biphenyl]-4-yl}cyclopropanecarboxylic acid] |  |  | ≤ 0.1 |
| COc1cc(-c2sc(Cl)cc2NC(=O)O[C@H](C)c2ccccc2)ccc1-c1ccc(C2(C(=O)O)CC2)cc1 [Production Example 6, (R)-1-[4′-(5-chloro-3-{[(1-phenylethoxy)carbonyl]amino}thiophen-2-yl)-2′-methoxy-[1,1′-biphenyl]-4-yl]cyclopropanecarboxylic acid] | 2.8 ± 1.0 | significant (p<0.05) reduction | ≤ 0.1 |
